Results reported in paper PMC9045377, “CpxA Phosphatase Inhibitor Activates CpxRA and Is a Potential Treatment for Uropathogenic Escherichia coli in a Murine Model of Infection” (Microbiology Spectrum, 2022).
Values joined by “and” are separate entries in the source; they are usually repeats but may differ in a detail not shown here. Equal entries are not always repeated.

Key:
[1] = test system: CpxRA; experiment: E. coli CpxR β-galactosidase reporter assay for CpxRA activation (reporter strain PAD282); format: cell-based, Escherichia coli
Protocol: (§1) E. coli strain CFT073 and its derivative CFT073ΔcpxA::cat were described previously and maintained on Luria broth (LB) plates at 37°C ([30]). The E. coli PcpxP′-lacZ reporter strain, PAD282, was the gift of Thomas Silhavy (Princeton University, Princeton, NJ, USA) and was maintained on TB plates at 37°C ([31]). HepG2 hepatocellular carcinoma cells were the gift of Andy Yu (Indiana University, Indianapolis, IN) and were grown in RPMI […] medium (Gibco) containing 10% fetal calf serum (HyClone) and 1 mM sodium pyruvate (Sigma) at 37°C with 5% CO2 as described ([31]).
Compounds 1 and 6 were purchased from ChemDiv and Aurum Pharmatech, respectively ([31], [32]). Compound 26 was synthesized and purified by the Duerfeldt laboratory as described ([32]). All compounds were dissolved in DMSO prior to use in this assay. The EC50 values for each compound were determined by measuring the β-galactosidase activity of the reporter strain PAD282 as previously reported ([31]). Briefly, PAD282 was cultured overnight in TB medium with 0.4% glucose and diluted into a 384-well plate, which contained the compounds in concentrations ranging from 0 to 160 μM, and incubated for 5 h at 37°C with no shaking. The All-in-One β-galactosidase reagent (Pierce) was added and the OD420, OD550, and OD600 of the wells were measured by a SpectraMax 384 plate reader. EC50 values were determined from 3 separate experiments done in triplicate using GraphPad Prism software using a nonlinear fit model. In some experiments, EC50 values were determined in the presence and absence of 10% human AB serum (Sigma).

[2] = Toxicity / clinical signs in mice; format: in vivo, female CBA/J mice
Protocol: We tested our initial hit, compound 1 ([31]) (Fig. 1), for toxicity in a murine model using criteria described in Materials and Methods. […] To test compound 1 for efficacy, female CBA/J mice were transurethrally inoculated with ∼1 × 10^8 CFU of UPEC strain CFT073; 12 h later, mice were treated with 100 mg/kg compound 1 (n = 10) or the vehicle control (n = 5) s.c. twice a day for 3 days and then sacrificed 4 h after the last dose. No effect was seen on the recovery of E. coli CFT073 in the urine, bladder, or kidneys (see Fig. S1 in the supplemental material). As compound 1 lacked efficacy, we aimed to improve the scaffold to enhance potency and eliminate the nitro group liability ([32]).
We developed a high-performance liquid chromatography-tandem mass spectrometry (HPLC-MS/MS) assay to measure compound 6 with a lower limit of quantification of 1 ng/mL. Single-dose PK parameters of compound 6 were determined in female CBA/J mice (n = 15) given 100 mg/kg s.c. dissolved in the vehicle. Blood was obtained from groups of 3 mice 1, 2, 4, 8, and 24 h postinjection.
Animal experiments were conducted according to the guidelines of the Indiana University School of Medicine Institutional Animal Care and Use Committee by the IU Simon Comprehensive Cancer Center In Vivo Therapeutics Core, a component of the Indiana Clinical Translational Science Institute. For the pilot toxicity study with compound 1, 4- to 6-week-old CBA/J female mice were obtained from Jackson Laboratory (Bar Harbor, ME) and were treated with compound 1 or the vehicle control twice a day for 3 days as described in the results. […] Toxicity was determined by the following criteria: deteriorating health-hunched posture, lack of grooming, failure to thrive, failure to eat and drink for >48 h, rapid loss of 15 to 20% body weight, inactivity with hunched posture, loss of righting reflex and inability to maintain upright posture, loss of general body condition with spine becoming visible, and dehiscence of wounds and/or evidence of infection at injection sites not responsive to veterinary treatment.

[3] = test system: CpxRA; design: method as in PMID 31104993; settings: β-galactosidase reporter assay in E. coli; read-out: mean 50% effective concentration (EC50), CpxRA activation; cited from earlier work
[4] = test system: UPEC strain CFT073; format: in vivo, Escherichia coli (in female CBA/J mice); settings: compound 26 trial
[5] = test system: HepG2 cells; experiment: Cytotoxicity by LDH release in HepG2 cells; format: cell-based; settings: 0 to 160 μM
Protocol: as §1
The cytotoxicity of compound 6 for HepG2 cells was determined by LDH release after incubation with the compound in concentrations ranging from 0 to 160 μM for 5 h and 24 h exactly as described ([31]). The IC50 was determined from quadruplicate experiments by the GraphPad Prism 6 software using a nonlinear fit model.

[6] = infected mice, 100 mg/kg s.c. at 12, 36, 60 h

N[C@@H]1CCCc2c1[nH]c1cc(F)c(F)cc21 [compound 26]
fold lower EC50 (more potent) than compound 6 ([1]; reporter assay): ~7 fold
signs of toxicity during efficacy trial [2, 6]: None of the compound 26-treated animals exhibited signs of toxicity
EC50 [3]: 1.1 µM
recoverable CFU in bladder vs vehicle-treated mice inoculated with CFT073ΔcpxA::cat [4]: significantly lower
recoverable CFU in kidneys vs vehicle-treated mice inoculated with CFT073ΔcpxA::cat [4]: significantly lower
recoverable CFU in urine vs vehicle-treated mice inoculated with CFT073ΔcpxA::cat [4]: trended toward having a lower CFU
recoverable CFU in urine vs CFT073-inoculated vehicle-treated controls ([4]; 8 mice/group, compound 26 100 mg/kg s.c. at 12, 36, 60 h, ciprofloxacin 2.5 mg/kg/dose s.c. at 12, 24, 36, 48, 60 h, sacrifice 64 h): significantly lowered
recoverable CFU in bladder vs CFT073-inoculated vehicle-treated controls ([4]; same regimens): trended toward lowering
recoverable CFU in kidneys vs CFT073-inoculated vehicle-treated controls ([4]; same regimens): trended toward lowering
recoverable CFU in urine, bladder and kidneys vs ciprofloxacin-treated group ([4]; all P > 0.9): no significant differences

NC1CCCc2c1[nH]c1ccc(F)cc21 (centres unmarked) [compound 6]
effect of 10% human AB serum on activity in the reporter assay ([1]; 10% human AB serum present vs absent): not affected
fold lower EC50 (more potent) than compound 1 ([1]; reporter assay): 3.2 fold and 3 fold
concentration for peak activation of CpxR ([1]; reporter assay, Fig. S2): 10 µM
IC50, LDH release ([5]; 5 h incubation): could not be calculated
IC50 ([5]; Homo sapiens, 24 h incubation): > 33 µM
clinical signs during efficacy trial [2, 6]: None of the compound 6-treated animals exhibited decreased activity, tremors, or squinting
clinical signs of toxicity at 24 h ([2]; single dose 100 mg/kg s.c.): No mice showed clinical signs of toxicity
tremors ([2]; single dose 100 mg/kg s.c., n = 15, one mouse from 30 min (severe at 2 h), six mice after 1 h): slight tremors
clinical signs, all treated mice ([2]; single dose 100 mg/kg s.c., from 10 min after injection to the 8-h time point): slightly decreased activity and squinting
EC50 [3]: 7.7 µM
